Measured values: US20070128124A1 (published 2007)
Read-outs that look alike come from different tables or passages of the source.

Key:
MTB strain H37Rv [1] = assay type: cell-based, Mycobacterium tuberculosis
[2] = test system: tuberculosis bacilli in the lungs; assay: Chronic murine infection model, efficacy versus duration of infection; assay type: in vivo, mouse
MTB strain H37Rv [3] = assay type: cell-based, Mycobacterium tuberculosis; remark: listed apart in the source
MTB strain H37Rv [4] = assay type: cell-based, Mycobacterium tuberculosis; remark: listed apart in the source
[5] = cited from earlier work
MTB = conditions: against MTB; cited from earlier work
MTB strain H37Rv [6] = test system: MTB strain H37Rv; parameters: species or system C57/BL6 mice; conditions: mouse, in vivo
[7] = cited from earlier work; remark: listed apart in the source
[8] = renal and ototoxicity, parenteral use; cited from earlier work
[9] = 10 times MIC, after 18-24 hours of incubation, stationary phase

Row | Molecule | time at which an effect begins (MTB strain H37Rv [1]) | RLU reduction, stationary phase (MTB strain H37Rv [1]; [9]) | reduction of bacillary load in the lungs ([2]; 13 weeks post infection) | reduction of lung CFU ([2]; two weeks post infection) | decrease in RLU from untreated cultures at peak efficacy (MTB strain H37Rv [3]) | time of peak efficacy (RLU endpoint) (MTB strain H37Rv [3]) | reduction of CFUs (MTB strain H37Rv [4]) | RLU reduction, stationary phase (MTB strain H37Rv [1]) | RLU reduction, log phase growth (MTB strain H37Rv [3]) | solubility in water [5] | reduction in efficacy from log phase cultures (MTB strain H37Rv [1]; stationary versus log phase, RLU at 24 hrs) | minimum inhibitory concentration (MIC) (MTB) | efficacy compared with isoniazid and rifampicin (MTB strain H37Rv [3]) | reduction in lung CFU, aerosol treated group (MTB strain H37Rv [6]) | reduction in lung CFU, subcutaneous administered group (MTB strain H37Rv [6]; sc) | maximum serum concentration (Cmax) ([7]; human, reached two hours after intramuscular injection) | oral absorption ([7]; oral) | patients in whom toxicities occur [8]
1 | NNC(=O)c1ccncc1 [isoniazid] | 48 h | no significant effect | 0.5 logs | 2 logs | ~1.5 log | 72 h | no effect |  |  |  |  |  |  |  |  |  |  | 
2 | CO[C@H]1/C=C/O[C@@]2(C)Oc3c(C)c(O)c4c(O)c(c(/C=N/N5CCN(C)CC5)c(O)c4c3C2=O)NC(=O)/C(C)=C\C=C\[C@H](C)[C@H](O)[C@@H](C)[C@@H](O)[C@@H](C)[C@H](OC(C)=O)[C@@H]1C [rifampicin] |  |  |  |  | 3.5 log |  | 0.5 logs | 0.3 logs | 2.25 logs |  |  |  |  |  |  |  |  | 
3 | Capreomycin |  | approximately 2 logs |  |  | 3.5 log |  | 2.5 logs |  | approximately 2 logs | soluble in water | ~15% | 2.5 µg/mL | superior to that of isoniazid and is as efficacious as rifampicin | ~2.5 logs | 1 log | 25000 ng/mL | quite poor | up to 10 % of patients
